Laboratory results reported in patent publication US12459914B2, “Compounds and compositions for the treatment of tumors” (FONDAZIONE ISTITUTO ITALIANO DI TECNOLOGIA, priority 2019, dated 2025).

Experiments:
BRC4/RAD51 interaction = molecular target: T1, BRC4/RAD51 interaction (Homo sapiens, UniProt Q06609); assay: Competitive ELISA assay, disruption of BRC4/RAD51 interaction; format: binding; settings: human Rad51, biotinylated BRC4 peptide
T1 construct: purchased Creative Biomart (Rad51); Life Technologies (BRC4 peptide)
T1 sequence (Q06609 1-339): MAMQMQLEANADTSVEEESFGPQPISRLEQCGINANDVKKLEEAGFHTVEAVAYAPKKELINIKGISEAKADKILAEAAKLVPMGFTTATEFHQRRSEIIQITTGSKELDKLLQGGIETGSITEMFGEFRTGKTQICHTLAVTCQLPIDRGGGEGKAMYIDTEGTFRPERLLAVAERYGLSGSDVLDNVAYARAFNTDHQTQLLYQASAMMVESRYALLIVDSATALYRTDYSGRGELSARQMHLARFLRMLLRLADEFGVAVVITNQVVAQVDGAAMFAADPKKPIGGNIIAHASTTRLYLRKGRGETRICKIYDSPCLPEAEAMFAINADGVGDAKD
Experimental: A competitive ELISA screening assay using biotinylated BRC4 peptide to disrupt the BRC4/RAD51 interaction was performed by modifying the method described by Rajendra et al. (Nucleic Acids Res. 38 (2010) 82-96). BRC4-biotinylated peptide (N-term Biotin[…] from Life Technologies) was used to coat 384-well plates (Nunc). After washing with PBS containing 0.05% Tween-20 (PBST), and blocking with the solution BSA 1%/PBST, overnight hybridization with human Rad51 protein (NP_002866 Creative Biomart, NY) was performed. Test compounds were added in dose-response from […] in triplicate with constant DMSO 1%. Antibody raised against Rad51 (Millipore) and HRP-secondary antibody staining to develop the 3,30,5,50-tetramethyllbenzidine signal (Sigma) quenched with 1M HCl was used as the assay readout. Colorimetric measure was read on Victor5 (PerkinElmer) plate Reader. BRC4 and Rad51 were included in the assay as positive control. Results were analyzed using GraphPad Software.

BxPC-3 cells = assay: Cell viability assay (CellTiter Glo); format: cell-based; settings: Homo sapiens, 72 h
Experimental: BxPC-3 cells were grown in RPMI 1640 containing 10% FBS, 100 U/ml penicillin/streptomycin, 2 mM glutamine. All media and supplements were from Sigma-Aldrich. Cultures were routinely tested for Mycoplasma contamination. Treatments (Olaparib and BRCA2-Rad51 disruptors) were administered in culture medium supplemented with 0.6% DMSO. The same amount of DMSO was added to the control, untreated cultures.
Cell viability was assessed by CellTiter Glo, Luminescent Cell Viability Assay. Briefly, BxPC-3 cells (1×10^4/well) were plated in white 96-well plates with clear bottom and treated for 72 h with olaparib (10 μM) or with the BRCA2-Rad51 disruptors, given alone or in combination. After treatments, the plate was allowed to equilibrate at room temperature for 30 min and the CellTiter-Glo reactive was directly added to each well. The plate was kept on a shaker for 2 min to induce cell lysis and its luminescence was measured by using a Fluoroskan Ascent FL reader (Labsystems) using manufacturer's instructions.

Row | Compound | EC50 (BRC4/RAD51 interaction) [µM] | EC50 (BxPC-3 cells) [µM]
1 | CC(=O)N1N=C(c2c(-c3ccccc3)c3cc(Cl)ccc3[nH]c2=O)CC1c1ccc(-c2ccc(Br)cc2)cc1 (centres unmarked) [d.40, 3-[2-acetyl-3-[4-(4-bromophenyl)phenyl]-3,4-dihydropyrazol-5-yl]-6-chloro-4-phenyl-1H-quinolin-2-one] | 45 | 28
2 | CC(=O)N1N=C(c2c(-c3ccccc3)c3cc(Cl)ccc3[nH]c2=O)CC1c1ccncc1 (centres unmarked) [d.97, 3-(1-acetyl-5-(pyridin-4-yl)-4,5-dihydro-1H-pyrazol-3-yl)-6-chloro-4-phenylquinolin-2 (1H)-one] | 60 | 24.3
3 | CCn1cc2cc(-c3ccc(C4CC(c5c(Cc6ccccc6)c6cc(Cl)ccc6[nH]c5=O)=NN4C(=O)CCC(=O)O)cc3)ccc2n1 (centres unmarked) [d.93, 4-[5-(4-benzyl-6-chloro-2-oxo-1H-quinolin-3-yl)-3-[4-(2-ethylindazol-5-yl)phenyl]-3,4-dihydropyrazol-2-yl]-4-oxo-butanoic acid] | 53 | 56.6
4 | COc1ccc(C2CC(c3c(-c4ccccc4)c4cc(Cl)ccc4[nH]c3=O)=NN2C(=O)CCC(=O)O)cc1 (centres unmarked) [d.11, 4-[5-(6-chloro-2-oxo-4-phenyl-1H-quinolin-3-yl)-3-(4-methoxyphenyl)-3,4-dihydropyrazol-2-yl]-4-oxo-butanoic acid] | > 100 | > 50
5 | COc1ccc(C2CC(c3c(-c4ccccc4)c4cc(Cl)ccc4[nH]c3=O)=NN2C(=O)CCC(=O)O)cc1F (centres unmarked) [d.18, 4-[5-(6-chloro-2-oxo-4-phenyl-1H-quinolin-3-yl)-3-(3-fluoro-4-methoxy-phenyl)-3,4-dihydropyrazol-2-yl]-4-oxo-butanoic acid] | > 100 | 73
6 | CC(=O)N1N=C(c2c(-c3ccccc3)c3cc(Cl)ccc3[nH]c2=O)CC1c1ccc(-c2ccc(Cl)cc2)cc1 (centres unmarked) [d.38, 3-[2-acetyl-3-[4-(4-chlorophenyl)phenyl]-3,4-dihydropyrazol-5-yl]-6-chloro-4-phenyl-1H-quinolin-2-one] | 45 | 18.8
7 | O=C(O)CCC(=O)N1N=C(c2c(-c3ccccc3)c3cc(Cl)ccc3[nH]c2=O)CC1c1ccco1 (centres unmarked) [d.20, 4-[5-(6-chloro-2-oxo-4-phenyl-1H-quinolin-3-yl)-3-(2-furyl)-3,4-dihydropyrazol-2-yl]-4-oxo-butanoic acid] | > 100 | > 100
8 | CCn1cc2cc(C3CC(c4c(-c5ccccc5)c5cc(Cl)ccc5[nH]c4=O)=NN3C(C)=O)ccc2n1 (centres unmarked) [d.30, 3-[2-acetyl-3-(2-ethylindazol-5-yl)-3,4-dihydropyrazol-5-yl]-6-chloro-4-phenyl-1H-quinolin-2-one] | > 100 | 16.8
9 | Cn1cc2cc(C3CC(c4c(-c5ccccc5)c5cc(Cl)ccc5[nH]c4=O)=NN3C(=O)CCC(=O)O)ccc2n1 (centres unmarked) [d.28, 4-[5-(6-chloro-2-oxo-4-phenyl-1H-quinolin-3-yl)-3-(2-methylindazol-5-yl)-3,4-dihydropyrazol-2-yl]-4-oxo-butanoic acid] | > 100 | > 100
10 | CC(=O)N1N=C(c2c(-c3ccccc3)c3cc(Cl)ccc3[nH]c2=O)CC1c1ccc(C(F)(F)F)cc1 (centres unmarked) [d.15, 3-[2-acetyl-3-[4-(trifluoromethyl)phenyl]-3,4-dihydropyrazol-5-yl]-6-chloro-4-phenyl-1H-quinolin-2-one] | > 100 | 11.4
11 | NCCC(=O)N1N=C(c2c(-c3ccccc3)c3cc(Cl)ccc3[nH]c2=O)CC1c1ccc(F)cc1 (centres unmarked) [d.4, 3-[2-(3-aminopropanoyl)-3-(4-fluorophenyl)-3,4-dihydropyrazol-5-yl]-6-chloro-4-phenyl-1H-quinolin-2-one] | > 100 | 7.6
12 | CC(C)(C)c1ccc(C2CC(c3c(-c4ccccc4)c4cc(Cl)ccc4[nH]c3=O)=NN2C(=O)CCC(=O)O)cc1 (centres unmarked) [d.16, 4-[3-(4-tert-butylphenyl)-5-(6-chloro-2-oxo-4-phenyl-1H-quinolin-3-yl)-3,4-dihydropyrazol-2-yl]-4-oxo-butanoic acid] | > 100 | 71.2
13 | CCCn1cc(-c2ccc(C3CC(c4c(-c5ccccc5)c5cc(Cl)ccc5[nH]c4=O)=NN3C(=O)CCC(=O)O)cc2)cn1 (centres unmarked) [d.43, 4-[5-(6-chloro-2-oxo-4-phenyl-1H-quinolin-3-yl)-3-[4-(1-propylpyrazol-4-yl)phenyl]-3,4-dihydropyrazol-2-yl]-4-oxo-butanoic acid] | 65 | 74.2

These reach a lower EC50 (BRC4/RAD51 interaction). Values come first.

Row | EC50 (BRC4/RAD51 interaction) [µM] | EC50 (BxPC-3 cells) [µM] | Compound
14 | 13 | 31 | O=C(O)CCC(=O)N1N=C(c2c(-c3ccccc3)c3cc(Cl)ccc3[nH]c2=O)CC1c1ccc(-c2ccc(F)cc2)cc1 (centres unmarked) [d.36, 4-[5-(6-chloro-2-oxo-4-phenyl-1H-quinolin-3-yl)-3-[4-(4-fluorophenyl)phenyl]-3,4-dihydropyrazol-2-yl]-4-oxo-butanoic acid]
15 | 25 | 41.5 | O=C(O)CCC(=O)N1N=C(c2c(-c3ccccc3)c3cc(Cl)ccc3[nH]c2=O)CC1c1ccc(-c2ccc(Cl)cc2)cc1 (centres unmarked) [d.37, 4-[5-(6-chloro-2-oxo-4-phenyl-1H-quinolin-3-yl)-3-[4-(4-chlorophenyl)phenyl]-3,4-dihydropyrazol-2-yl]-4-oxo-butanoic acid]
16 | 13 | 15.2 | CC(=O)N1N=C(c2c(Cc3ccccc3)c3cc(Cl)ccc3[nH]c2=O)CC1c1ccc(F)cc1 (centres unmarked) [d.51, 3-[2-acetyl-3-(4-fluorophenyl)-3,4-dihydropyrazol-5-yl]-4-benzyl-6-chloro-1H-quinolin-2-one]
17 | 15 | 15 | CC(=O)N1N=C(c2c(-c3ccccc3)c3cc(Cl)ccc3[nH]c2=O)CC1c1ccc(C(C)(C)C)cc1 (centres unmarked) [d.17, 3-[2-acetyl-3-(4-tert-butylphenyl)-3,4-dihydropyrazol-5-yl]-6-chloro-4-phenyl-1H-quinolin-2-one]
18 | 29 | 50 | O=C(O)CCC(=O)N1N=C(c2c(-c3ccccc3)c3cc(Cl)ccc3[nH]c2=O)CC1c1ccc(C(F)(F)F)cc1 (centres unmarked) [d.14, 4-[5-(6-chloro-2-oxo-4-phenyl-1H-quinolin-3-yl)-3-[4-(trifluoromethyl)phenyl]-3,4-dihydropyrazol-2-yl]-4-oxo-butanoic acid]
19 | 28 | > 50 | CCn1cc2cc(C3CC(c4c(-c5ccccc5)c5cc(Cl)ccc5[nH]c4=O)=NN3C(=O)CCC(=O)O)ccc2n1 (centres unmarked) [d.29, 4-[5-(6-chloro-2-oxo-4-phenyl-1H-quinolin-3-yl)-3-(2-ethylindazol-5-yl)-3,4-dihydropyrazol-2-yl]-4-oxo-butanoic acid]
20 | 18 | 4.8 | CC(=O)N1N=C(c2c(-c3ccccc3)c3cc(Cl)ccc3[nH]c2=O)CC1c1ccc2c(ccn2C)c1 (centres unmarked) [d.23, 3-[2-acetyl-3-(1-methylindol-5-yl)-3,4-dihydropyrazol-5-yl]-6-chloro-4-phenyl-1H-quinolin-2-one]
21 | 10 | > 40 | CCn1ccc2cc(C3CC(c4c(-c5ccccc5)c5cc(Cl)ccc5[nH]c4=O)=NN3C(=O)CCC(=O)O)ccc21 (centres unmarked) [d.24, 4-[5-(6-chloro-2-oxo-4-phenyl-1H-quinolin-3-yl)-3-(1-ethylindol-5-yl)-3,4-dihydropyrazol-2-yl]-4-oxo-butanoic acid]
22 | 19 | 29.7 | CC(=O)N1N=C(c2c(-c3ccccc3)c3cc(Cl)ccc3[nH]c2=O)CC1c1ccccc1 (centres unmarked) [d.47, 3-(2-acetyl-3-phenyl-3,4-dihydropyrazol-5-yl)-6-chloro-4-phenyl-1H-quinolin-2-one]
23 | 13 | > 50 | Cn1ncc2cc(C3CC(c4c(-c5ccccc5)c5cc(Cl)ccc5[nH]c4=O)=NN3C(=O)CCC(=O)O)ccc21 (centres unmarked) [d.26, 4-[5-(6-chloro-2-oxo-4-phenyl-1H-quinolin-3-yl)-3-(1-methylindazol-5-yl)-3,4-dihydropyrazol-2-yl]-4-oxo-butanoic acid]
24 | 9 | 21 | CC(=O)N1N=C(c2c(-c3ccccc3)c3cc(Cl)ccc3[nH]c2=O)CC1c1ccc2c(cnn2C)c1 (centres unmarked) [d.27, 3-[2-acetyl-3-(1-methylindazol-5-yl)-3,4-dihydropyrazol-5-yl]-6-chloro-4-phenyl-1H-quinolin-2-one]
25 | 16 | 48 | O=C(O)CCC(=O)N1N=C(c2c(-c3ccccc3)c3cc(Cl)ccc3[nH]c2=O)CC1c1ccc(Br)cc1 (centres unmarked) [d.8, 4-[3-(4-bromophenyl)-5-(6-chloro-2-oxo-4-phenyl-1H-quinolin-3-yl)-3,4-dihydropyrazol-2-yl]-4-oxo-butanoic acid]
